Measurements taken from patent publication US20220133783A1 (priority 2020, published 2022).
Where “and” joins values, the source holds several entries; their conditions need not be identical. Equal values may be shown once.

Experiments:
[1] = system: VSV pseudo typed with SARS-CoV2 Spike protein (rVSG-dG 2019-CoV-2-18AA S); assay type: cell-based
[2] = system: virus; conditions: cited from earlier work
[3] = system: Human coronavirus 229E; assay type: cell-based; conditions: 10 min pre-treatment with 10 μg/mL
[4] = system: MRC-5 cells

Row | Substance | FIC of the single agent within the combination [1] | reported effect by itself on virus inhibition (antiviral concentration) [2] [µg/mL] | human coronavirus 229E binding and replication in the MRC-5 cell line ([3]; SEM) | viral entry and cytopathic effects caused by the virus ([3]; after 48 hours of incubation, compared to controls) | cytotoxicity [4]
1 | copper | 0.10 and 0.07 | 300 | – | – | –
2 | ethyl-N-alpha-lauroyl-L-arginate HCl [ELAH] | 0.10 | 300 | inhibited | reduces | non-cytotoxic
